The subject of one data set is cell culture. Set-up: method as in PMID 34217043. Conditions: read-out: concentration causing 50% inhibition; depending on cell culture; cited from earlier work.
Data set [1] relates to HT-29 colorectal carcinoma cells. The data set can be described thus: in vitro cytostatic (antiproliferative) activity, Alamar Blue (resazurin) assay, HT-29. It counts as cell-based. Conditions: Homo sapiens; in vitro cytostatic activity, Alamar Blue (resazurin) assay, HT-29 colon carcinoma cell culture; read-out: IC50 (µM) HT-29. The protocol: (§1) For the evaluation of the in vitro antiproliferative activity of the compounds, the cell viability was determined by resazurin (Alamar Blue) assay on MDA-MB 231 breast carcinoma, A2058 melanoma, and HT-29 colon carcinoma cell culture. The control wells were treated only with serum-free medium.
(§2) The cytostatic effect of the compounds was studied on tumor cell cultures in vitro. MDA-MB-231 human breast adenocarcinoma cells were cultured in DMEM medium supplemented with 10% FBS, 2 mM L-glutamine, penicillin–streptomycin antibiotics mixture (50 IU/mL, and 50 μg/mL, respectively), 1 mM sodium pyruvate, and 1% non-essential amino acid mixture. A2058 human melanoma cells, and HT-29 colorectal carcinoma cells were cultured in RPMI medium supplemented with 10% FBS, 2 mM L-glutamine, and penicillin–streptomycin antibiotics mixture (50 IU/mL and 50 μg/mL, respectively). Cell lines were generous gifts from Dr. József Tóvári (Department of Experimental Pharmacology, National Institute of Oncology, Budapest, Hungary).
(§3) All cell cultures were maintained at 37 °C in a humidified atmosphere with 5% CO2. The cells were grown to confluence and then divided into 96-well tissue culture plates with the initial cell number of 5.0 × 10^3 cells/well. […] Control cells were treated with serum-free medium or DMSO (c = 1.0 v/v %) at the same conditions. After this incubation period, cells were washed twice with serum-free medium, and following that, they were cultured for another 72 h in a 10% serum-containing medium at 37 °C. After that, cell viability was determined using the Alamar Blue assay. Alamar Blue is a non-toxic, resazurin-based dye that living cells reduce to a fluorescent molecule, resorufin [99]. Resazurin sodium salt (Merck, Darmstadt, Germany) was dissolved in PBS at c = 0.15 mg/mL, pH 7.4). A measure of 22 uL of the dye was added to each well and incubated at 37 °C for 3 h until the pink color of the reduced dye appeared. Fluorescence intensity in each well was measured using a Synergy H4 multimode microplate reader (BioTek, Winooski, VT); at λex = 530/30 and λem = 610/10 nm.
(§4) The cytostasis values were expressed in the percentage of untreated control.

In data set [2] the test system is MDA-MB-231 human breast adenocarcinoma cells. The data set can be described thus: in vitro cytostatic (antiproliferative) activity, Alamar Blue (resazurin) assay, MDA-MB 231. It counts as cell-based. The note with it: in vitro cytostatic activity, Alamar Blue (resazurin) assay, MDA-MB 231 breast carcinoma cell culture, read-out: IC50 (µM) MDA-MB 231. The protocol:
as §1, §2, §3, §4

The test system of data set [3] is A2058 human melanoma cells. In words: in vitro cytostatic (antiproliferative) activity, Alamar Blue (resazurin) assay, A2058. Format: cell-based. As for the experimental part: as §1, §2, §3, §4
The nature of data set [4]: chemical stability in the aqueous solutions/buffer of the PAMPA experiments (UHPLC-DAD). As for the experimental part: Quantities of the isolated compounds in the PAMPA experiments (14, 58, 74, 86, 92, 106, 141, and 143) were determined by UHPLC-DAD. The Juglans extracts were analyzed by an ACQUITY UPLC H-Class PLUS System equipped with a quaternary solvent delivery pump (QSM), an auto-sampler manager (FTN), a column compartment (CM), and a photodiode array (PDA) detector (Waters Corporation). An Acquity BEH C18 column (100 × 2.1 mm i.d., 1.7 µm; Waters Corporation) maintained at 30 °C was used as stationary phase. Eluent A was 0.3% acetic acid in water and eluent B was acetonitrile, the following gradient elution was applied (flow rate: 0.3 mL/min): 5.0–100.0% B (0.0–11.0 min), 100.0–5.0% B (11.0–11.5 min), 5% B (11.5–15.0 min). The injection volume was 5 µL and chromatograms were recorded at 200–400 nm. The chromatograms acquired at the UV absorption maxima of each compound were used for data evaluation.
Stock solutions (10 mM in methanol) were diluted with the defined buffer (pH 7.4 for the PAMPA-BBB and pH 6.8 for the PAMPA-GI assays) to obtain the donor solutions (composition: 594.0 μL buffer + 6.0 μL stock solution). The buffers were prepared as follows: pH = 6.8: 20.2 g Na2HPO4 ∙ 7H2O and 3.4 g NaH2PO4 ∙ H2O dissolved in distilled water to achieve the final volume of 1000.0 mL, pH adjustment with 0.5 M NaOH or 0.5 M HCl; pH = 7.4: one PBS tablet (Phosphate Buffered Saline, pH 7.4; Sigma Aldrich) dissolved in 200.0 mL distilled water. Donor solutions were filtered through Phenex-RC 15 mm, 0.2 μm syringe filters (Gen-Lab Ltd., Budapest, Hungary).

Data set [5] can be described thus: PAMPA-GI (parallel artificial membrane permeability assay, phosphatidylcholine membrane). Format: in vitro ADME. Conditions: for Papp at 4 h, 100 µM: PAMPA, read-out: logPe PAMPA-GI (n = 9) (converted). The protocol:
(§5) For the PAMPA-BBB test, 5 μL of porcine polar brain lipid extract (PBLE) solution (16.0 mg PBLE + 8.0 mg cholesterol dissolved in 600.0 μL n-dodecane) was applied for each well of the 96-well polycarbonate-based filter donor plates (top plate) (Multiscreen™-IP, MAIPN4510, pore size 0.45 μm; Merck). For the PAMPA-GI assay, the wells of the top plate were coated with 5 μL of the mixture of 16.0 mg phosphatidylcholine + 8.0 mg cholesterol dissolved in 600.0 μL n-dodecane. A measure of 150.0 μL of aliquots of the filtrated donor solutions were placed on the membrane. The 96-well PTFE acceptor plates (bottom plates) (Multiscreen Acceptor Plate, MSSACCEPTOR; Merck), were filled with 300.0 μL buffer solution (0.01 M PBS buffer, pH 7.4). The donor plate was placed upon the acceptor plate, and both plates were incubated together at 37 °C for 4 h in a Heidolph Titramax 1000 Vibrating platform shaker (Heidolph, Schwabach, Germany).
(§6) After incubation, sandwich plates were separated and the concentrations of each compound in the starting donor solution and in the acceptor and donor wells were determined in triplicate by UHPLC-DAD method described above. […] The effective permeability and the membrane retention in the PAMPA-BBB and the PAMPA GI experiments were calculated by Equations (4)–(7), respectively:(4) Pe=−2.303/A(t−τSS)·VA·VD/VA+VD·lg1−VA+VD/1−MR·VD×CAt/CD0 (5) Pe=−2.303/A(t−τSS)·1/1+ra·lg−ra+1+ra/1−MR×CDt/CD0 where Pe is the effective permeability coefficient (cm/s), A is the filter area (0.24 cm^2), VD and VA are the volumes in the donor (0.15 cm^3) and acceptor phases (0.30 cm^3), t is the incubation time (s), τSS is the time (s) to reach steady-state (240 s), CD(t) is the concentration (mol/cm^3) of the compound in the donor phase at time t, CD(0) is the concentration (mol/cm^3) of the compound in the donor phase at time 0, and MR is the estimated membrane retention factor (the estimated mole fraction of solute lost to the membrane), ra is the sink asymmetry ratio (gradient-pH-induced), defined as:(6) ra=VD/VA×Pe(A→D)/Pe(D→A) (7) MR=1−CDt/CD0−VA/VDCAt/CD0
(§7) All experiments were performed in three triplicates on three consecutive days (n = 9), caffeine standard was used as positive, while rutin as negative control. ClogP values were calculated by ChemAxon Marvin 22.3.

The nature of data set [6]: PAMPA-BBB (parallel artificial membrane permeability assay, porcine polar brain lipid extract). It counts as in vitro ADME. Conditions: for Papp at 4 h, 100 µM: pig, PAMPA, pH 7.4, read-out: logPe PAMPA-BBB (n = 9) (converted). The protocol: as §5, §6, §7
Data set [7] deals with Vero E6 non-tumorous kidney cells. The data set can be described thus: selectivity study: cytostatic activity on non-tumorous Vero E6 cells, Alamar Blue assay. It counts as cell-based, African green monkey (C. sabaeus). The note with it: Vero E6 non-tumorous kidney cells; for IC50: Chlorocebus sabaeus, Vero C1008, in vitro cytostatic activity, Alamar Blue assay, read-out: IC50 (µM) VERO E6 Non Tumorous. As for the experimental part: (§8) To determine the selectivity, we assessed the compounds on the Vero E6 non-tumorous kidney cells from African green monkeys (C. sabaeus), and their cytostatic activity was determined (Table 3).
(§9) For the selectivity study, a non-human primate cell culture was used. Vero E6 cells were established from kidney tissue sampled from an African green monkey (C. sabaeus) They originated from a primary culture initiated in March 1962 by Yoshihiro Yasumura at Chiba University in Japan. Vero E6 cells were obtained from the European Collection of Authenticated Cell Cultures (ECACC 85020206) and maintained in DMEM high-glucose (4.5 g/L) medium (Lonza, Basel, Switzerland) containing 10% FBS (Gibco, Thermo Fisher Scientific) and supplemented with 2 mM of L-glutamine (Lonza), 1 mM sodium pyruvate (Merck), and CellCultureGuard (PanReacApplichem, ITW Reagents, Darmstadt, Germany) at 37 °C in a humidified atmosphere of 5% CO2.
as §3, §4

For data set [8], the system named is MDA-MB 231, A2058, HT-29 and Vero E6 cells. In words: in vitro cytostasis, Alamar Blue assay, cell lines taken together. It counts as cell-based. The note with it: tumor cell lines (MDA-MB 231, A2058, HT-29). As for the experimental part:
as §1, §8, §2, §9, §3, §4

Where [9] appears, read: in vitro cytostatic activity, Alamar Blue (resazurin) assay, A2058 melanoma cell culture, read-out: IC50 (µM) A2058.

Where two headings read alike, the source gives them in different places.

Turning to `C/C=C/C1=CC=C/C(=C2\C(=O)CNC2=O)O1` [vermelhotin], in the data set on cell culture, the IC50 is 12 to 20 µM.

On to `O=C1C=CC(=O)c2c(O)cccc21` [Compound 141, juglone], for which the IC50 stood at 0.53 ± 0.1 µM in data set [1]; 9.9 ± 0.7 µM in data set [2]; 15.5 µM in data set [3] (A2058 melanoma, treatment overnight, then 72 h culture, Alamar Blue, read-out: IC50 (antiproliferative effect) on the melanoma culture); 13.5 ± 0.7 µM in data set [3] (setting [9]); 3.7 ± 0.7 µM in [7]. The “additional minor compounds appeared in the aqueous solutions prepared for the PAMPA experiments” value in data set [4] (based on UHPLC-DAD, aqueous donor solutions) is less than 10%. Also, the Papp at 4 h, 100 µM was 389 nm/s in data set [5] and 776 nm/s in data set [6].

With `CCOC(=O)c1cc(O)c(O)c(O)c1` [Compound 58, ethyl gallate], the IC50 in data set [1] is more than 100 µM; in data set [2], more than 100 µM; in data set [3] (setting [9]), 102.5 ± 0.7 µM; in [7], 82.1 ± 5.7 µM. In data set [3] (read-out: % inhibition at 100 µM, 100 µM, A2058 cell culture), the inhibition at 100 µM was 56.4%. Also, in [4] (PAMPA, 100 µM), the “additional minor compounds appeared in the aqueous solutions prepared for the PAMPA experiments” value is on record as less than 5%. Moreover, the Papp at 4 h, 100 µM was 37.2 nm/s in data set [5] and 17 nm/s in [6].

Consider `O=c1c(O[C@@H]2OC[C@@H](O)[C@H](O)[C@H]2O)c(-c2ccc(O)c(O)c2)oc2cc(O)cc(O)c12` [Compound 74, quercetin-3-O-xyloside (reynoutrin)], for which the “degradation in the pH 7.4 buffer” value in data set [4] (pH 7.4) is recorded as “significant degree of degradation”. The “logPe PAMPA-GI (n = 9)” value in data set [5] (donor pH 6.8, acceptor pH 7.4, 37 °C, 4 h, n.d. = not detected in the acceptor phase) was “not detected in the acceptor phase”. For the same compound, the “logPe PAMPA-BBB (n = 9)” value in [6] (donor pH 7.4, acceptor pH 7.4, 37 °C, 4 h, n.d. = not detected in the acceptor phase) is “not detected in the acceptor phase”. Moreover, the “IC50 (cytostatic activity) on the Vero E6 cells” value in data set [7] (selectivity) is “not cytostatic”. In data set [8], the “effect on the tumor cell lines” value is “no effect”.

(Values after PMC11241769, “Comprehensive Characterization of Phytochemical Composition, Membrane Permeability, and Antiproliferative Activity of Juglans nigra Polyphenols” (International Journal of Molecular Sciences, 2024).)
